Measured values from patent publication US20020137929A1, “1 - (3-heterocyclylphenyl) isothiourea, -isourea, -guanidine and -amidine herbicidal agents” (Intellectual Property Department, BASF Aktiengesellschaft, priority 1998, published 2002).

How the values were obtained:
CASOB (Sicklepod) = test: Postemergence herbicidal evaluation; assay type: in vivo, Cassia obtusifolia; conditions: postemergence
In short: (§1)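 Two-week seedlings sprayed postemergence at 40 psi; formulation: 1:1 acetone/water, 0.5% TWEEN 20; application ≈0.0156–0.500 kg/ha. Greenhouse grow-out, then 0–9 visual scoring at 4–5 weeks.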

[1] = test system: CHEAL (Lambsquarters, Common); test: Postemergence herbicidal evaluation; assay type: in vivo, Chenopodium album; conditions: postemergence
In short: as §1

ECHCG (Barnyardgrass) = test: Postemergence herbicidal evaluation; assay type: in vivo, Echinochloa crus-galli; conditions: postemergence
In short: as §1

ORYSAT (Rice, Tebonnet) [2] = test: Postemergence herbicidal evaluation; assay type: in vivo, Oryza sativa, (L.) Tebonnet; conditions: postemergence
In short: as §1

GALAP (Galium) = test: Preemergence herbicidal evaluation; assay type: in vivo, Galium aparine; conditions: rated 4-5 weeks after treatment, rating scale 0-9
In short: (§2)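 Test compound, dissolved in aqueous acetone, was sprayed over planted soil cups at an equivalent of about 0.0156 to 0.500 kg/ha; seeds had been mixed with potting soil. Greenhouse growth followed, with visual 0-9 scoring of injury at four to five weeks.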

SETVI (Foxtail, Green) = test: Preemergence herbicidal evaluation; assay type: in vivo, Setaria viridis; conditions: rated 4-5 weeks after treatment, rating scale 0-9
In short: as §2

[3] = test system: GLXMAW (Soybean, Williams); test: Preemergence herbicidal evaluation; assay type: in vivo, Glycine max, (L.) Merr. cv Williams; conditions: rated 4-5 weeks after treatment, rating scale 0-9
In short: as §2

ORYSAT (Rice, Tebonnet) [4] = test: Preemergence herbicidal evaluation; assay type: in vivo, Oryza sativa, (L.) Tebonnet; conditions: rated 4-5 weeks after treatment, rating scale 0-9
In short: as §2

[5] = test system: TRZAWR (Wheat, Winter, cv Riband); test: Preemergence herbicidal evaluation; assay type: in vivo, Triticum aestivum; conditions: rated 4-5 weeks after treatment, rating scale 0-9
In short: as §2

ZEAMX (Corn, Field) = test: Preemergence herbicidal evaluation; assay type: in vivo, Zea mays; conditions: rated 4-5 weeks after treatment, rating scale 0-9
In short: as §2

CYPIR (Rice Flatsedge) = test: Preemergence weed control under flooded paddy conditions; assay type: in vivo, Cyperus iria; conditions: rated 3-4 weeks after treatment
In short: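 Visual injury scored 0-9 against control three to four weeks post-treatment, greenhouse-grown. Application: acetone/water (50/50) solutions dosed directly into flood water (1.5-3 cm over silt loam, planted top 0.5 cm), roughly 0.0313 to 0.500 kg/ha active ingredient.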

MOOVA (Monochoria) = test: as above; assay type: in vivo, Monochoria vaginalis; conditions: rated 3-4 weeks after treatment
In short: (§3)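 Ratings on a 0-9 visual scale cover stand, vigor, malformation, size, chlorosis and overall appearance relative to a control, taken three to four weeks post-treatment. Application was into flood water over freshly sown silt loam at roughly 0.0313 to 0.500 kg/ha.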

[6] = test system: SAGPY (Arrowhead (Pygmaea)); test: as above; assay type: in vivo, Sagittaria pygmaea; conditions: rated 3-4 weeks after treatment
In short: as §3

In the case of `Cn1c(C(F)(F)F)cc(=O)n(-c2cc(N=C3SCC(=O)N3Cc3ccc(Cl)c(Cl)c3)c(Cl)cc2F)c1=O` [Compound 144, 3-{4-Chloro-5-{[3-(3,4-dichlorobenzyl)-4-oxo-2-thiazolidinylidene]amino}-2-fluorophenyl}-1-methyl-6-(trifluoromethyl)-2,4(1H,3H)-pyrimidinedione], the “Herbicidal rating CASOB” value (CASOB (Sicklepod); rate 0.0156 kg/ha) is reported as 3.0, the “Herbicidal rating CASOB” value (CASOB (Sicklepod); rate 0.0313 kg/ha) is reported as 5.0 and the “Herbicidal rating CASOB” value (CASOB (Sicklepod); rate 0.0625 kg/ha) is reported as 7.0. For the same molecule, the “Herbicidal rating CHEAL” value ([1]; rate 0.0156 kg/ha) was 7.0, the “Herbicidal rating CHEAL” value ([1]; rate 0.0313 kg/ha) was 9.0 and the “Herbicidal rating CHEAL” value ([1]; rate 0.0625 kg/ha) was 9.0. The “Herbicidal rating ECHCG” value (ECHCG (Barnyardgrass); rate 0.0156 kg/ha) was 2.0, the “Herbicidal rating ECHCG” value (ECHCG (Barnyardgrass); rate 0.0313 kg/ha) was 3.0 and the “Herbicidal rating ECHCG” value (ECHCG (Barnyardgrass); rate 0.0625 kg/ha) was 4.0. The “Herbicidal rating ORYSAT” value (ORYSAT (Rice, Tebonnet) [2]; rate 0.0156 kg/ha) was 2.5, the “Herbicidal rating ORYSAT” value (ORYSAT (Rice, Tebonnet) [2]; rate 0.0313 kg/ha) was 2.5 and the “Herbicidal rating ORYSAT” value (ORYSAT (Rice, Tebonnet) [2]; rate 0.0625 kg/ha) was 3.0. For the same molecule, the “Preemergence herbicidal rating GALAP” value (GALAP (Galium); rate 0.0156 kg/ha) was 1.0, the “Preemergence herbicidal rating GALAP” value (GALAP (Galium); rate 0.0313 kg/ha) was 1.0 and the “Preemergence herbicidal rating GALAP” value (GALAP (Galium); rate 0.0625 kg/ha) was 1.0. The “Preemergence herbicidal rating GALAP” value (GALAP (Galium); rate 0.1250 kg/ha) was 2.0, the “Preemergence herbicidal rating GALAP” value (GALAP (Galium); rate 0.2500 kg/ha) was 2.0 and the “Preemergence herbicidal rating SETVI” value (SETVI (Foxtail, Green); rate 0.0156 kg/ha) was 0.0. For the same molecule, the “Preemergence herbicidal rating SETVI” value (SETVI (Foxtail, Green); rate 0.0313 kg/ha) was 0.0, the “Preemergence herbicidal rating SETVI” value (SETVI (Foxtail, Green); rate 0.0625 kg/ha) was 2.0 and the “Preemergence herbicidal rating SETVI” value (SETVI (Foxtail, Green); rate 0.1250 kg/ha) was 9.0. For the same molecule, the “Preemergence herbicidal rating SETVI” value (SETVI (Foxtail, Green); rate 0.2500 kg/ha) was 9.0, the “Preemergence herbicidal rating GLXMAW” value ([3]; rate 0.0156 kg/ha) was 0.0 and the “Preemergence herbicidal rating GLXMAW” value ([3]; rate 0.0313 kg/ha) was 0.0. For the same molecule, the “Preemergence herbicidal rating GLXMAW” value ([3]; rate 0.0625 kg/ha) was 0.0, the “Preemergence herbicidal rating GLXMAW” value ([3]; rate 0.1250 kg/ha) was 0.0 and the “Preemergence herbicidal rating GLXMAW” value ([3]; rate 0.2500 kg/ha) was 0.0. For the same molecule, the “Preemergence herbicidal rating ORYSAT” value (ORYSAT (Rice, Tebonnet) [4]; rate 0.0156 kg/ha) was 0.0, the “Preemergence herbicidal rating ORYSAT” value (ORYSAT (Rice, Tebonnet) [4]; rate 0.0313 kg/ha) was 0.0 and the “Preemergence herbicidal rating ORYSAT” value (ORYSAT (Rice, Tebonnet) [4]; rate 0.0625 kg/ha) was 0.0. For the same molecule, the “Preemergence herbicidal rating ORYSAT” value (ORYSAT (Rice, Tebonnet) [4]; rate 0.1250 kg/ha) was 0.0, the “Preemergence herbicidal rating ORYSAT” value (ORYSAT (Rice, Tebonnet) [4]; rate 0.2500 kg/ha) was 0.0 and the “Preemergence herbicidal rating TRZAWR” value ([5]; rate 0.0156 kg/ha) was 0.0. For the same molecule, the “Preemergence herbicidal rating TRZAWR” value ([5]; rate 0.0313 kg/ha) was 0.0, the “Preemergence herbicidal rating TRZAWR” value ([5]; rate 0.0625 kg/ha) was 0.0 and the “Preemergence herbicidal rating TRZAWR” value ([5]; rate 0.1250 kg/ha) was 0.0. For the same molecule, the “Preemergence herbicidal rating TRZAWR” value ([5]; rate 0.2500 kg/ha) was 0.0, the “Preemergence herbicidal rating ZEAMX” value (ZEAMX (Corn, Field); rate 0.0156 kg/ha) was 0.0 and the “Preemergence herbicidal rating ZEAMX” value (ZEAMX (Corn, Field); rate 0.0313 kg/ha) was 0.0. For the same molecule, the “Preemergence herbicidal rating ZEAMX” value (ZEAMX (Corn, Field); rate 0.0625 kg/ha) was 0.0, the “Preemergence herbicidal rating ZEAMX” value (ZEAMX (Corn, Field); rate 0.1250 kg/ha) was 0.0 and the “Preemergence herbicidal rating ZEAMX” value (ZEAMX (Corn, Field); rate 0.2500 kg/ha) was 0.0. For the same molecule, the “herbicidal effect rating, CYPIR” value (CYPIR (Rice Flatsedge); 0.0313 kg/ha) was 3.0, the “herbicidal effect rating, CYPIR” value (CYPIR (Rice Flatsedge); 0.0625 kg/ha) was 3.0 and the “herbicidal effect rating, CYPIR” value (CYPIR (Rice Flatsedge); 0.1250 kg/ha) was 9.0. For the same molecule, the “herbicidal effect rating, CYPIR” value (CYPIR (Rice Flatsedge); 0.2500 kg/ha) was 9.0, the “herbicidal effect rating, MOOVA” value (MOOVA (Monochoria); 0.0313 kg/ha) was 6.0 and the “herbicidal effect rating, MOOVA” value (MOOVA (Monochoria); 0.0625 kg/ha) was 9.0. The “herbicidal effect rating, MOOVA” value (MOOVA (Monochoria); 0.1250 kg/ha) was 9.0, the “herbicidal effect rating, MOOVA” value (MOOVA (Monochoria); 0.2500 kg/ha) was 9.0 and the “herbicidal effect rating, SAGPY” value ([6]; 0.0313 kg/ha) was 0.0. The “herbicidal effect rating, SAGPY” value ([6]; 0.0625 kg/ha) was 0.0, the “herbicidal effect rating, SAGPY” value ([6]; 0.1250 kg/ha) was 2.0 and the “herbicidal effect rating, SAGPY” value ([6]; 0.2500 kg/ha) was 4.0.
